Data as given in article PMC4090677 (Frontiers in Immunology, 2014).

Assay: physchem
Settings: pH 7.6, aqueous with cosolvent or surfactant or cyclodextrin, kinetic from dmso stock

solubility: ≤ 50 µM
SMILES: COc1ccccc1N1CCN(C(=O)c2ccc3c(c2)NC(=O)C(CSCc2ccccc2C)N3)CC1 (stereo not shown) [Compound 4]
